Here are results for two molecules from patent US12721820B2, “Method of manufacturing peptide nanoparticles” (DuPage Medical Technology, Inc., priority 2020, dated 2026).

The subject of data set [1] is laser-induced cremaster arteriolar thrombosis. In words: Laser-induced cremaster arteriolar thrombosis model. It is filed as in vivo, mice. The note with it: laser-induced mouse cremaster arterial thrombosis model; for intravascular coagulation (fibrin clot formation / fibrin deposition): site of vascular injury. From the text:
This example illustrates the comparative effect of M3mP6 HLPN (prepared substantially as described in Example 1) and cangrelor on intracvascular coagulation using laser-induced cremaster arteriolar thrombosis model in mice.
It was recently shown that outside-in signaling plays an important role in not only platelet thrombus formation but also intravascular coagulation under flow shear, an important aspect of thrombosis. […] Thus, we tested the effect of M3mP6 HLPN generated by vortex-mixing-lyophilization on platelet thrombus formation and intravascular coagulation in comparison with cangrelor using the laser-induced cremaster arterial thrombosis model.

The nature of data set [2]: Dissolution and storage stability of lyophilized powder. It is filed as physicochemical. Here is the method:
The M3mP6 HLPN thus generated achieves a high M3mP6 peptide loading reaching >80% of total nanoparticle (mol/mol) (when such percentage of peptide was incorporated into during the process) and a high peptide concentration of >10 mM in injectable suspension. As analyzed by dynamic light scattering (DLS), the vast majority (99.8-100%) of these lipid-stabilized, PEG-coated M3mP6 HLPN have a particle size ranging between 6 nm to 25 nm (in different preparations) with occasional appearance of very small populations (0-0.2%) with larger diameters (~50-500 nm) (FIGS. 5A-5F).

Data set [3] relates to tail bleeding time in mice. In words: Tail bleeding time. The format is in vivo. The following applies: same concentrations that inhibit occlusive thrombosis.
A short description of a further data set: in vivo. The note with it: male, rat, iv.
Data set [4] in a line: Rat 5-day infusion pharmacokinetic study. The following applies: for AUC(0-t) / Tmax / clearance: plasma; for Css: steady-state plasma concentration during continuous IV infusion; for λz: terminal elimination rate constant.

Residues, ends and D or L forms follow the SMILES beside them. *: point of attachment. Myristoyl = CCCCCCCCCCCCCC(=O)*

What is called half-life is how long it takes for the measured level to halve. Lower therefore signals fast loss. The Vd is the apparent volume that relates the amount in the body to the concentration in plasma or blood. Read a low Vd as confinement near the circulation. For orientation: AUC(0-t) means exposure summed from dosing to a finite time, without extrapolation to infinity. A low value points to less exposure. A word on the Tmax: it is the time from dosing to the highest level. The term clearance denotes the rate of elimination divided by the concentration.

On to `CSCCNc1nc(SCCC(F)(F)F)nc2c1ncn2[C@@H]1O[C@H](COP(=O)(O)OP(=O)(O)C(Cl)(Cl)P(=O)(O)O)[C@@H](O)[C@H]1O` [cangrelor], for which the platelet thrombus formation entry in data set [1] was “similarly potent effects”; in data set [1] (listed as Cangrelor), “similarly inhibited”. For the same molecule, the “intravascular coagulation (fibrin clot formation / fibrin deposition)” value in data set [1] is on record as “moderate effect”; in data set [1] (listed as Cangrelor) it was “only partially inhibited”.

Consider `CCCCCCCCCCCCCC(=O)N[C@@H](Cc1ccccc1)C(=O)N[C@@H](CCC(=O)O)C(=O)N[C@@H](CCC(=O)O)C(=O)N[C@@H](CCC(=O)O)C(=O)N[C@@H](CCCNC(=N)N)C(=O)N[C@@H](CC(C)C)C(=O)O` [M3mP6, Myr-FEEERL (SEQ ID NO: 8)] (Myristoyl-FEEERL-OH; C-terminus assumed), for which the storage stability result in data set [2] (lyophilized powder at room temperature (22° C.)) was “at least 2 weeks”. Further, the “storage stability (similar DLS profile and pharmacological effect)” value in data set [2] (lyophilized powder stored at −20° C.) is “more than 18 months”. In addition, in data set [3], the tail bleeding time result is given as “without affecting bleeding”. For the same molecule, the half-life in “in vivo” was 234 min. The molecule also showed a Vd in data set [4] (female, in vivo, iv) of 0.2 L/kg. Further, the AUC(0-t) came out at 17600 µg·h/mL in data set [4] (female, intravenous) and 9490 µg·h/mL in data set [4] (male, intravenous). In addition, the Tmax in data set [4] (female, intravenous) worked out at 4.8 min; in data set [4] (male, intravenous), 4.8 min. Moreover, the clearance in data set [4] (female, iv, CL CLAUC, clearance estimated from AUC0-∞) was 0.7 mL/min/kg; in data set [4] (female, iv, CL CLcss, clearance estimated from Css), 0.8 mL/min/kg; in data set [4] (male, intravenous, CL CLAUC, clearance estimated from AUC0-∞), 1.4 mL/min/kg; in data set [4] (male, iv, CL CLcss, clearance estimated from Css), 1.3 mL/min/kg. Also, the Css in data set [4] (female) was 131.117 µg/mL; in data set [4] (male), 77.621 µg/mL. The molecule also displayed a t1/2-λz in data set [4] (female, terminal elimination half-life) of 186 min. For the same molecule, the figures for the λz in data set [4] (female) and in data set [4] (male) were 0.223 h⁻¹ and 0.177 h⁻¹, respectively. The same molecule displayed a Vλz in data set [4] (male, distribution volume) of 0.46 L/kg.
